Measured values reported in patent publication US8952024B2, “Herbicidal pyrimidone derivatives” (E I du Pont de Nemours and Company, priority 2009, dated 2015).

What was measured:
Type in all cases: in vivo
[1] = system: green foxtail (Setaria viridis); test: Test B pre-/postemergence plant response; conditions: for Foxtail, Green plant response rating (0 to 100 scale): 62 g ai/ha, 0 is no effect, 13 to 15 days
Summary of the method: (§1)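 Compound in solvent + surfactant applied pre-em (loam/sand) or post-em (plants 2–18 cm, peat medium); greenhouse hold 13–15 days; visual 0–100 control score.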

[2] = system: giant foxtail (Setaria faberii); test: Test B pre-/postemergence plant response; conditions: for Foxtail, Giant plant response rating (0 to 100 scale): 62 g ai/ha, 0 is no effect, 13 to 15 days
Summary of the method: as §1

[3] = system: cocklebur (Xanthium strumarium); test: Test B pre-/postemergence plant response; conditions: for Cocklebur plant response rating (0 to 100 scale): 62 g ai/ha, 0 is no effect, 13 to 15 days
Summary of the method: as §1

[4] = system: large crabgrass (Digitaria sanguinalis); test: Test A pre-/postemergence plant response
Summary of the method: (§2)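 Seeds planted in loam soil/sand blend; test chemicals in non-phytotoxic solvent mixture with surfactant applied as directed soil spray preemergence and, concurrently, postemergence to plants 2–10 cm tall at one- to two-leaf stage. Greenhouse ~10 days; visual injury vs untreated controls, 0 (no effect) to 100 (complete control).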

[5] = system: wheat (Triticum aestivum); test: Test A pre-/postemergence plant response
Summary of the method: as §2

[6] = system: barnyardgrass (Echinochloa crus-galli); test: Test A pre-/postemergence plant response
Summary of the method: as §2

[7] = system: pigweed (Amaranthus retroflexus); test: Test A pre-/postemergence plant response
Summary of the method: as §2

[8] = system: giant foxtail (Setaria faberii); test: Test A pre-/postemergence plant response
Summary of the method: as §2

[9] = system: velvetleaf (Abutilon theophrasti); test: Test A pre-/postemergence plant response
Summary of the method: as §2

[10] = system: morningglory (Ipomoea spp.); test: Test A pre-/postemergence plant response
Summary of the method: as §2

corn (Zea mays) = test: Test A pre-/postemergence plant response
Summary of the method: as §2

[11] = 31 g ai/ha, postemergence, scale 0 to 100, 0 is no effect, 100 is complete control
[12] = postemergence, 100 is complete control
[13] = Postemergence, 250 g ai/ha, scale 0 to 100 (0 no effect, 100 complete control)
[14] = Postemergence, 125 g ai/ha, visual rating after 13 to 15 days, scale 0 (no effect) to 100 (complete control)
[15] = Postemergence, 125 g ai/ha, 0 to 100 scale where 0 is no effect and 100 is complete control
[16] = Postemergence, 500 g ai/ha, 0 to 100 scale, 0 = no effect, 100 = complete control, approx. ten days
[17] = Preemergence, 125 g ai/ha, 0 to 100 scale, 0 = no effect, 100 = complete control
[18] = Preemergence, 500 g ai/ha, visual injury, 0 to 100 scale (0 no effect, 100 complete control), approx. ten days
[19] = 16 g ai/ha, Postemergence, 0 to 100 scale
[20] = Postemergence, 31 g ai/ha, 0 to 100 scale (0 no effect, 100 complete control)
[21] = Postemergence, 125 g ai/ha, scale 0 to 100 (0 no effect, 100 complete control)
[22] = Postemergence, 500 g ai/ha, visual injury, 0 to 100 scale (0 no effect, 100 complete control), approx. ten days
[23] = Preemergence, 500 g ai/ha, 0 to 100 scale, 0 = no effect, 100 = complete control

CCCCCCn1c(-c2ccccc2)ncc(C(=O)C2=C(O)CCCC2=O)c1=O [Compound 94]
Plant response rating, Foxtail, Green [1, 11]: 10 | Foxtail, Green plant response rating (0 to 100 scale) [1, 12]: 60 | Plant response rating, Foxtail, Green [1, 13]: 80 | Plant response rating, Foxtail, Giant [2, 11]: 65 | Foxtail, Giant plant response rating (0 to 100 scale) [2, 12]: 75 | Plant response rating, Foxtail, Giant [2, 13]: 98 | Plant response rating, Cocklebur [3, 11]: 45 | Cocklebur plant response rating (0 to 100 scale) [3, 12]: 45 | Plant response rating, Cocklebur [3, 14]: 60 | Plant response rating, Cocklebur [3, 13]: 90 | Plant response rating, Crabgrass, Large [4, 15]: 80 | Plant response rating, Crabgrass, Large [4, 16]: 90 | Plant response rating, Crabgrass, Large [4, 17]: 30 | Plant response rating, Crabgrass, Large [4, 18]: 90 | Plant response rating, Wheat [5, 15]: 0 | Plant response rating, Wheat [5, 16]: 0 | Plant response rating, Wheat [5, 17]: 0 | Plant response rating, Wheat [5, 18]: 0 | Plant response rating, Barnyardgrass [6, 15]: 90 | Plant response rating, Barnyardgrass [6, 16]: 90 | Plant response rating, Barnyardgrass [6, 17]: 0 | Plant response rating, Barnyardgrass [6, 18]: 30 | Plant response rating, Pigweed [7, 15]: 100 | Plant response rating, Pigweed [7, 16]: 100 | Plant response rating, Pigweed [7, 17]: 70 | Plant response rating, Pigweed [7, 18]: 100 | Plant response rating, Foxtail, Giant [8, 15]: 30 | Plant response rating, Foxtail, Giant [8, 16]: 80 | Plant response rating, Foxtail, Giant [8, 17]: 0 | Plant response rating, Foxtail, Giant [8, 18]: 40 | Plant response rating, Velvetleaf [9, 15]: 100 | Plant response rating, Velvetleaf [9, 16]: 100 | Plant response rating, Velvetleaf [9, 17]: 40 | Plant response rating, Velvetleaf [9, 18]: 70 | Plant response rating, Morningglory [10, 15]: 100 | Plant response rating, Morningglory [10, 16]: 100 | Plant response rating, Morningglory [10, 17]: 10 | Plant response rating, Morningglory [10, 18]: 40 | Plant response rating, Corn (corn (Zea mays); [15]): 0 | Plant response rating, Corn (corn (Zea mays); [16]): 10 | Plant response rating, Corn (corn (Zea mays); [17]): 0 | Plant response rating, Corn (corn (Zea mays); [18]): 0

O=C1CCCC(O)=C1C(=O)c1cnc(C2CCCC2)n(-c2ccccc2)c1=O [Compound 92]
Plant response rating, Foxtail, Green [1, 11]: 75 | Foxtail, Green plant response rating (0 to 100 scale) [1, 12]: 80 | Plant response rating, Foxtail, Green [1, 13]: 98 | Plant response rating, Foxtail, Giant [2, 11]: 65 | Foxtail, Giant plant response rating (0 to 100 scale) [2, 12]: 75 | Plant response rating, Foxtail, Giant [2, 13]: 98 | Plant response rating, Cocklebur [3, 11]: 25 | Cocklebur plant response rating (0 to 100 scale) [3, 12]: 80 | Plant response rating, Cocklebur [3, 14]: 98 | Plant response rating, Cocklebur [3, 13]: 98 | Plant response rating, Crabgrass, Large [4, 15]: 90 | Plant response rating, Crabgrass, Large [4, 16]: 90 | Plant response rating, Crabgrass, Large [4, 17]: 90 | Plant response rating, Crabgrass, Large [4, 18]: 100 | Plant response rating, Wheat [5, 15]: 0 | Plant response rating, Wheat [5, 16]: 0 | Plant response rating, Wheat [5, 17]: 0 | Plant response rating, Wheat [5, 18]: 0 | Plant response rating, Barnyardgrass [6, 15]: 80 | Plant response rating, Barnyardgrass [6, 16]: 90 | Plant response rating, Barnyardgrass [6, 17]: 60 | Plant response rating, Barnyardgrass [6, 18]: 100 | Plant response rating, Pigweed [7, 15]: 100 | Plant response rating, Pigweed [7, 16]: 100 | Plant response rating, Pigweed [7, 17]: 100 | Plant response rating, Pigweed [7, 18]: 100 | Plant response rating, Foxtail, Giant [8, 15]: 80 | Plant response rating, Foxtail, Giant [8, 16]: 90 | Plant response rating, Foxtail, Giant [8, 17]: 70 | Plant response rating, Foxtail, Giant [8, 18]: 80 | Plant response rating, Velvetleaf [9, 15]: 100 | Plant response rating, Velvetleaf [9, 16]: 100 | Plant response rating, Velvetleaf [9, 17]: 90 | Plant response rating, Velvetleaf [9, 18]: 100 | Plant response rating, Morningglory [10, 15]: 100 | Plant response rating, Morningglory [10, 16]: 100 | Plant response rating, Morningglory [10, 17]: 0 | Plant response rating, Morningglory [10, 18]: 80 | Plant response rating, Corn (corn (Zea mays); [15]): 0 | Plant response rating, Corn (corn (Zea mays); [16]): 20 | Plant response rating, Corn (corn (Zea mays); [17]): 0 | Plant response rating, Corn (corn (Zea mays); [18]): 0

O=C1CCCC(O)=C1C(=O)c1cnc(-c2ccccc2)n(C2CC[S+]([O-])CC2)c1=O (mixture of isomers) [Compound 169, 5-[(2-hydroxy-6-oxo-1-cyclohexen-1-yl)carbonyl]-2-phenyl-3-(trans/cis-tetrahydro-1-oxido-2H-thiopyran-4-yl)-4(3H)-pyrimidinone]
Plant response rating, Foxtail, Green [1, 19]: 45 | Plant response rating, Foxtail, Green [1, 20]: 60 | Plant response rating, Foxtail, Green [1, 21]: 95 | Plant response rating, Foxtail, Giant [2, 19]: 75 | Plant response rating, Foxtail, Giant [2, 20]: 95 | Plant response rating, Foxtail, Giant [2, 21]: 100 | Plant response rating, Cocklebur [3, 19]: 100 | Plant response rating, Cocklebur [3, 20]: 100 | Plant response rating, Cocklebur [3, 21]: 100 | Plant response rating, Crabgrass, Large [4, 15]: 90 | Crabgrass, Large plant response rating [4, 22]: 100 | Plant response rating, Crabgrass, Large [4, 17]: 40 | Plant response rating, Crabgrass, Large [4, 23]: 40 | Plant response rating, Wheat [5, 15]: 20 | Wheat plant response rating [5, 22]: 20 | Plant response rating, Wheat [5, 17]: 0 | Plant response rating, Wheat [5, 23]: 0 | Plant response rating, Barnyardgrass [6, 15]: 90 | Barnyardgrass plant response rating [6, 22]: 100 | Plant response rating, Barnyardgrass [6, 17]: 0 | Plant response rating, Barnyardgrass [6, 23]: 50 | Plant response rating, Pigweed [7, 15]: 100 | Pigweed plant response rating [7, 22]: 100 | Plant response rating, Pigweed [7, 17]: 0 | Plant response rating, Pigweed [7, 23]: 50 | Plant response rating, Foxtail, Giant [8, 15]: 80 | Foxtail, Giant plant response rating [8, 22]: 100 | Plant response rating, Foxtail, Giant [8, 17]: 40 | Plant response rating, Foxtail, Giant [8, 23]: 50 | Plant response rating, Velvetleaf [9, 15]: 100 | Velvetleaf plant response rating [9, 22]: 100 | Plant response rating, Velvetleaf [9, 17]: 20 | Plant response rating, Velvetleaf [9, 23]: 50 | Plant response rating, Morningglory [10, 15]: 100 | Morningglory plant response rating [10, 22]: 100 | Plant response rating, Morningglory [10, 17]: 0 | Plant response rating, Morningglory [10, 23]: 20 | Plant response rating, Corn (corn (Zea mays); [15]): 0 | Corn plant response rating (corn (Zea mays); [22]): 30 | Plant response rating, Corn (corn (Zea mays); [17]): 0 | Plant response rating, Corn (corn (Zea mays); [23]): 20
